The values below come from PubChem BioAssay AID328 (DTP/NCI, 2004).

Values joined by “and” are separate entries in the source; they are usually repeats but may differ in a detail not shown here. Equal entries are not always repeated. Toxic doses and inconclusive results are not listed.

The test system of this experiment is BDF1 mice, P388 leukemia ip, median survival T/C. In words: NCI In Vivo Anticancer Drug Screen. Data for tumor model P388 Leukemia (intraperitoneal) in B6D2F1 (BDF1) mice. The following applies: endpoint: median survival time, higher = longer survival. An outline of the steps:
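T/C = treated-group survival ÷ vehicle-control survival; tumour transplanted into mice before dosing.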

Where [1] appears, read: dose: 25.0 mg/kg/injection, schedule: Q01DX009 (ip), vehicle: saline with Tween-80.
The mark [2] stands for this setting: dose: 50.0 mg/kg/injection, schedule: Q01DX009 (ip), vehicle: saline with Tween-80.
The mark [3] stands for this setting: dose: 12.5 mg/kg/injection, schedule: Q04DX003 (ip), vehicle: Klucel (hydroxypropylcellulose) (HPC).
[4] abbreviates: dose: 25.0 mg/kg/injection, schedule: Q04DX003 (ip), vehicle: Klucel (hydroxypropylcellulose) (HPC).
The mark [5] stands for this setting: dose: 50.0 mg/kg/injection, schedule: Q04DX003 (ip), vehicle: Klucel (hydroxypropylcellulose) (HPC).
[6] abbreviates: dose: 25.0 mg/kg/injection, schedule: Q04DX003 (ip), vehicle: saline with Tween-80.

As to `NC(=O)c1cn(C2OC(CO)C(O)C2O)c2ncnc(N)c12` (stereo not given), the T/C by setting is: (dose: 0.18 mg/kg/injection, schedule: Q01DX009 (ip), vehicle: saline with Tween-80) 183 % of control; (dose: 0.25 mg/kg/injection, schedule: Q01DX010 (ip), vehicle: water) 181 % of control; (dose: 0.37 mg/kg/injection, schedule: Q01DX009 (ip), vehicle: saline with Tween-80) 162 % of control; (dose: 0.5 mg/kg/injection, schedule: Q01DX010 (ip), vehicle: water) 190 % of control; (dose: 0.5 mg/kg/injection, schedule: Q04DX003 (ip), vehicle: saline) 163 % of control; (dose: 0.75 mg/kg/injection, schedule: Q01DX009 (ip), vehicle: saline with Tween-80) 187 % of control and 200 % of control. The T/C (dose: 0.75 mg/kg/injection, schedule: Q01DX010 (ip), vehicle: water) is 177 % of control; the T/C (dose: 1.5 mg/kg/injection, schedule: Q01DX009 (ip), vehicle: saline with Tween-80) is 195 % of control; the T/C (dose: 1.5 mg/kg/injection, schedule: Q04DX003 (ip), vehicle: saline) was 154 % of control; the T/C (dose: 2.0 mg/kg/injection, schedule: Q04DX003 (ip), vehicle: saline with Tween-80) was 122 % of control; the T/C (dose: 3.0 mg/kg/injection, schedule: Q04DX003 (ip), vehicle: saline with Tween-80) is 195 % of control; the T/C (dose: 3.0 mg/kg/injection, schedule: Q04DX003 (ip), vehicle: saline) is 195 % of control. The T/C (dose: 6.0 mg/kg/injection, schedule: Q04DX003 (ip), vehicle: saline with Tween-80) is 190 % of control and the T/C (dose: 6.0 mg/kg/injection, schedule: Q04DX003 (ip), vehicle: saline) was 90 % of control.
As for `O=[N+]([O-])c1ccc(S(=O)(=O)c2ccccc2)c2nonc12`, the T/C reads like this: under setting [1], 107 % of control; under setting [2], 98 % of control.
In the case of `NC1=Nc2cccc3cccc(c23)N1`, the T/C reads like this: (dose: 12.5 mg/kg/injection, schedule: Q01DX009 (ip), vehicle: saline with Tween-80) 92 % of control; under setting [3], 109 % of control; under setting [1], 100 % of control; under setting [4], 100 % of control; under setting [2], 100 % of control; under setting [5], 109 % of control.
Take `C=CCN1C(=O)C=CC1=O`: the T/C is 102 % of control (dose: 0.75 mg/kg/injection, schedule: Q01DX009 (ip), vehicle: saline) and 117 % of control (dose: 3.0 mg/kg/injection, schedule: Q01DX009 (ip), vehicle: saline).
As for `O=C(O)CN(CCN(CC(=O)O)CC(=O)O)CC(=O)O`, the T/C is, setting by setting: (dose: 25.0 mg/kg/injection, schedule: Q01DX010 (ip), vehicle: saline) 100 % of control; (dose: 50.0 mg/kg/injection, schedule: Q01DX010 (ip), vehicle: saline) 91 % of control; (dose: 200.0 mg/kg/injection, schedule: Q01DX010 (ip), vehicle: saline) 95 % of control.
As for `C=CC(=O)c1c(O)cc(O)c2c1C(C)C(=O)O2` (stereo not given), where the note is “dose: 75.0 mg/kg/injection, schedule: Q01DX009 (ip), vehicle: Klucel (hydroxypropylcellulose) (HPC)”, the T/C is 113 % of control.
Turning to `CCN(Cc1ccc(Cl)c(Cl)c1)c1ccc2nc(N)nc(N)c2c1C`, the T/C by setting is: (dose: 1.56 mg/kg/injection, schedule: Q01DX009 (ip), vehicle: water) 105 % of control; (dose: 6.25 mg/kg/injection, schedule: Q01DX009 (ip), vehicle: water) 151 % of control; (dose: 12.5 mg/kg/injection, schedule: Q01DX009 (ip), vehicle: water) 98 % of control; under setting [3], 107 % of control; (dose: 12.5 mg/kg/injection, schedule: Q04DX003 (ip), vehicle: water) 103 % of control and 118 % of control; (dose: 25.0 mg/kg/injection, schedule: Q01DX009 (ip), vehicle: water) 89 % of control. Moreover, the T/C reads like this: under setting [4], 109 % of control; under setting [5], 115 % of control; (dose: 50.0 mg/kg/injection, schedule: Q04DX003 (ip), vehicle: water) 159 % of control and 189 % of control; (dose: 100.0 mg/kg/injection, schedule: Q04DX003 (ip), vehicle: Klucel (hydroxypropylcellulose) (HPC)) 88 % of control; (dose: 100.0 mg/kg/injection, schedule: Q04DX003 (ip), vehicle: water) 109 % of control.
On to `CCC1=CCN2CCC34c5cc(C6(C(=O)OC)CC7CC(CC)CN(CCc8c6[nH]c6ccccc86)C7)c(OC)cc5N(C)C3C(O)(C(=O)OC)C(OC(C)=O)C1C24` (stereo not given), for which the T/C is, setting by setting: (dose: 0.03 mg/kg/injection, schedule: Q01DX010 (ip), vehicle: saline) 100 % of control; (dose: 0.06 mg/kg/injection, schedule: Q01DX010 (ip), vehicle: saline) 104 % of control; (dose: 0.13 mg/kg/injection, schedule: Q01DX010 (ip), vehicle: saline) 95 % of control; (dose: 0.25 mg/kg/injection, schedule: Q01DX010 (ip), vehicle: saline) 100 % of control; (dose: 0.5 mg/kg/injection, schedule: Q01DX010 (ip), vehicle: saline) 86 % of control.
For the compound `CC(C)=CC(=O)CC(O)(C(F)(F)F)C(F)(F)Cl` (stereo not given), the T/C is 100 % of control under setting [6]; 95 % of control (dose: 50.0 mg/kg/injection, schedule: Q04DX003 (ip), vehicle: saline with Tween-80); 109 % of control (dose: 100.0 mg/kg/injection, schedule: Q04DX003 (ip), vehicle: saline with Tween-80).
As for `O=[N+]([O-])c1ccc2nccc(Cl)c2c1`, the T/C is, setting by setting: under setting [4], 100 % of control; under setting [5], 95 % of control.
Take `CNC(=O)N/N=C/c1ccccc1`: the T/C is 101 % of control (dose: 75.0 mg/kg/injection, schedule: Q01DX009 (ip), vehicle: saline with Tween-80); 97 % of control (dose: 150.0 mg/kg/injection, schedule: Q01DX009 (ip), vehicle: saline with Tween-80); 92 % of control (dose: 300.0 mg/kg/injection, schedule: Q01DX009 (ip), vehicle: saline with Tween-80).
Regarding `CC(C)=CCOc1ccc(C(=O)/C=C/c2ccc(O)cc2)c(O)c1`, the T/C runs as follows: (dose: 1.25 mg/kg/injection, schedule: Q01DX009 (ip), vehicle: Klucel (hydroxypropylcellulose) (HPC)) 93 % of control; (dose: 2.5 mg/kg/injection, schedule: Q01DX009 (ip), vehicle: Klucel (hydroxypropylcellulose) (HPC)) 115 % of control; (dose: 5.0 mg/kg/injection, schedule: Q01DX009 (ip), vehicle: Klucel (hydroxypropylcellulose) (HPC)) 109 % of control; (dose: 10.0 mg/kg/injection, schedule: Q01DX009 (ip), vehicle: Klucel (hydroxypropylcellulose) (HPC)) 107 % of control; (dose: 20.0 mg/kg/injection, schedule: Q01DX009 (ip), vehicle: Klucel (hydroxypropylcellulose) (HPC)) 97 % of control; (dose: 40.0 mg/kg/injection, schedule: Q01DX009 (ip), vehicle: Klucel (hydroxypropylcellulose) (HPC)) 98 % of control.
Regarding `C[n+]1ccc2cc(N)c3c4ccccc4sc3c2c1`, the T/C runs as follows: (dose: 3.12 mg/kg/injection, schedule: Q01DX009 (ip), vehicle: saline with Tween-80) 110 % of control and 119 % of control; (dose: 3.13 mg/kg/injection, schedule: Q01DX009 (ip), vehicle: Klucel (hydroxypropylcellulose) (HPC)) 116 % of control; (dose: 6.25 mg/kg/injection, schedule: Q01DX009 (ip), vehicle: Klucel (hydroxypropylcellulose) (HPC)) 123 % of control; (dose: 6.25 mg/kg/injection, schedule: Q04DX003 (ip), vehicle: saline with Tween-80) 105 % of control; (dose: 12.5 mg/kg/injection, schedule: Q01DX009 (ip), vehicle: Klucel (hydroxypropylcellulose) (HPC)) 156 % of control; (dose: 12.5 mg/kg/injection, schedule: Q04DX003 (ip), vehicle: saline with Tween-80) 112 % of control. For the same compound, the T/C reads like this: (dose: 25.0 mg/kg/injection, schedule: Q01DX009 (ip), vehicle: Klucel (hydroxypropylcellulose) (HPC)) 170 % of control and 184 % of control; under setting [1], 172 % of control; under setting [6], 112 % of control.
With `CC1=C(C#N)C(C)(C)C(C#N)=C(C)N1C`, the T/C reads like this: (dose: 25.0 mg/kg/injection, schedule: Q01DX009 (ip), vehicle: distilled water + Tween-80) 88 % of control; (dose: 50.0 mg/kg/injection, schedule: Q01DX009 (ip), vehicle: distilled water + Tween-80) 100 % of control; (dose: 100.0 mg/kg/injection, schedule: Q01DX009 (ip), vehicle: distilled water + Tween-80) 104 % of control.
